In paper PMC7590976, “Detection of Active Granzyme A in NK92 Cells with Fluorescent Activity-Based Probe” (Journal of Medicinal Chemistry, 2020):
Where “and” joins values, the source holds several entries; their conditions need not be identical. Equal entries are not always repeated. Non-standard residues stand in square brackets, D forms with d. *: point of attachment. Oic = O=C(O)[C@@H]1C[C@@H]2CCCC[C@@H]2N1; ACC = NC(=O)Cc1cc(=O)oc2cc(N*)ccc12

Columns and labels:
GrB [1] = molecular target: T1, GrB (Homo sapiens, UniProt P10144); experiment: GrA substrate selectivity testing on GrB; format: biochemical; settings: substrate 200 μM (Fig 3A) or 67 μM, 18 nM GrB
T1 construct: made in house; host or cells: Pichia pastoris
Source text: Since GrA and GrK are the most structurally similar Grs, they may recognize and hydrolyze the same natural and synthetic substrates. Therefore, we tested whether our new GrA substrates are also recognized by GrK or GrB (Figure 3A). For this experiment, we screened substrates SK8 to SK28 and a GrKref substrate (Ac-Tyr-Arg-Phe-Lys-ACC) or GrBref substrate (Ac-Ile-Glu-Pro-Asp-ACC) at the same concentration using a plate reader, and we monitored the increase in fluorescence over time. The linear portions of the diagram were analyzed, and as we expected, the majority of the substrates were well recognized by GrK, even better than their recognition by GrA. […] Based on that, we concluded that Tic-Gly-Oic-Arg is a leading sequence for a specific potent inhibitor and ABP for GrA.
Figure 3 (A) GrA substrate selectivity testing on GrK and GrB. Substrates SK8–SK28 and the reference GrK and GrB substrates were placed in a 96-well plate at a concentration of 200 μM and treated with GrK or GrB. […] Data present the average of 2 replicates as adjusted RFU/s.
Figure S2. Selectivity of SK15 substrate toward selected serine proteases (GrA, GrB, GrM, GrK,
PR3, and hNE). The reference substrates were as follows: Ac-Ile-Gly-Pro-Arg-ACC for GrA, Ac -Tyr-
Arg-Phe-Lys-ACC for GrK, Ac-Ile-Glu-Pro-Asp-ACC for GrB, Ac-Lys-Val-Pro-Leu-ACC for GrM,
Ac-Glu(O-Bzl)-Lys(Ac)-Hyp(Bzl)-Nva-ACC for PR3 and Ac-Arg(NO)2-Glu(Bzl)-Oic-Abu-ACC for hNE.
Substrates were placed in a 96-well plate at a concentration of 67 µM and treated with optimal
and emission wavelengths. Data present the average of 2 replicates as adjusted RFU/s.
Figure S3. Detection of active GrA in NK92 cells.
(also on this page, place not known: S K15 hNE) . Ac-Tyr- -Arg(NO)2-Glu(Bzl)-Oic-Abu-ACC ( 89 G rA cell s. reference reference SK15 reference SK15 reference SK15 reference SK15 reference SK15 0 50 100 substrate turnover, %RFU/s PR3GrMGrBGrK hNEGrA SK15 selectivity) […]

human GrA = experiment: P1 library screening (individual substrates Ac-Ile-Ser-Pro-P1-ACC) with GrA; settings: relative to best P1 residue (100%); substrates at the same concentration; fluorescence 355/460 nm
GrB [2] = molecular target: T1, GrB; experiment: Residual activity assay, GrB; format: biochemical; settings: 18 nM GrB preincubated with 10 μM compound 30 min 37 °C; 200 μM GrBref
Protocol: (§1) We wondered whether the selectivity of our SK15-based molecules for GrA would be maintained by substrate structure modifications, such as replacing ACC with a diphenyl phosphonate warhead and changing the N-terminus from acetyl to the cyanine derivative Cy5.
(§2) As a control, enzymes without inhibitor and probe were tested.

GrA [3] = molecular target: T2, GrA (Homo sapiens, UniProt P12544); experiment: Second-order inhibition rate constant kobs/I toward GrA, pseudo-first-order conditions; format: biochemical; settings: pseudo-first-order; substrate SK15 10 μM; inhibitor 714–333 nM; GrA 350 nM added; pH 7.5, 37 °C; average of at least three experiments with SD
T2 construct: made in house; host or cells: Pichia pastoris
T2 sequence (P12544 29-262): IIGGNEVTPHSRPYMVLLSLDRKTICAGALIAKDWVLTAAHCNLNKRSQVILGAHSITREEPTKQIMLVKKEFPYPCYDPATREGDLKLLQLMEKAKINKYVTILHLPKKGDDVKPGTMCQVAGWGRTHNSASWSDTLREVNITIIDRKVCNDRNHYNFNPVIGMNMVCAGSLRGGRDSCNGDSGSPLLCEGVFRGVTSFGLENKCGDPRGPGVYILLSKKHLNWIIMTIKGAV
Protocol: We calculated the apparent second-order rate constants for inhibition (kobs(app)/I) of GrA-mediated SK15I under pseudo first-order conditions by serially diluting the new inhibitor in the range of 714–333 nM with a constant optimal substrate (SK15) concentration of 10 μM (Figure 3B).
The second-order inhibition rate constant (kobs/I expressed in M^–1 s^–1) toward GrA was measured under pseudo-first-order kinetic conditions. Ten microliters of substrate (SK15) was mixed with varying inhibitor or probe concentrations and incubated at 37 °C for 15 min. […] Experiments are presented as the average of at least three experiments with standard deviation.

GrA [4] = molecular target: T2, GrA; experiment: In-gel detection of recombinant GrA with SK15.5 (SDS-PAGE); format: binding; settings: GrA 250 nM, 37 °C
Protocol: (§3) Next, we tested the utility of our fluorescent probe for the in-gel detection of active GrA in test samples. […] We then ran a simple SDS-PAGE assay to detect labeled GrA (Figure 4A). […] In our hands, the probe bound to the enzyme, as indicated by the fluorescent 35 kDa species, after the minimal incubation time (5 min). […] The optimal concentration was 500 nM (strong signal) (Figure 4B).
(§4) (A) Incubation time of SK15.5 with enzyme optimization. […] (D) GrA in-gel detection in NK92 cell lysates. […] The results are representative of at least 2 replicates.
(§5) In contrast to the closely related GrB, GrH, GrM, and GrK, GrA is a homodimer formed by stable disulfide-linked subunits.[26] Since the subunits are oriented in opposite directions, the surrounding area may form an exosite.[26]
(§6) In the incubation time optimization assay, the enzyme and probe concentrations were constant (250 nM), and the incubation time ranged from 0 to 120 min. […] Enzyme was incubated with probe in a volume of 80 μL, followed by the reduction with 40 μL of 3 × SDS/DTT for 5 min at 95 °C. Samples were centrifuged (3 min, 4500g), and 40 μL of each sample was run on 4–12% Bis-Tris 10-well gels (Invitrogen). The first well was loaded with 2 μL of the protein marker PageRuler Plus Prestained Protein Ladder (Thermo Scientific). Electrophoresis was conducted at 165 V for 37 min at room temperature. […] Total sample volume was 80 μL, to which 40 μL of 3× SDS/DTT was added and boiled for 5 min at 95 °C. Samples were centrifuged (3 min, 4500g), and 40 μL of each sample was run on 4–12% Bis-Tris 10-well gels (Invitrogen). Each form of the enzyme without SK15.5 and probe itself were run as controls. The first well was loaded with 2 μL of protein marker PageRuler Plus Prestained Protein Ladder (Thermo Scientific). Electrophoresis and membrane transfer were conducted in the same manner as above.

GrA [5] = molecular target: T3, GrA (Homo sapiens, UniProt P12544); experiment: as above; format: binding; settings: GrA forms 250 nM, probe 500 nM, 1 h, Western blot
T3 construct: made in house; host or cells: Pichia pastoris
T3 sequence (P12544 27-262): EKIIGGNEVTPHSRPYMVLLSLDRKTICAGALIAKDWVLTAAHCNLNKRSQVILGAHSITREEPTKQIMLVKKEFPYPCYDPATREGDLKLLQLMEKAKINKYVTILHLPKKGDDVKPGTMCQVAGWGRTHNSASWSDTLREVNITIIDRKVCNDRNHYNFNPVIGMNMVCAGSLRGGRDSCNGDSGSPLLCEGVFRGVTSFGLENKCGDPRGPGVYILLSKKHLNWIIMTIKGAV
Protocol: as §3, §4, §5, §6

hNE = experiment: Residual activity assay, hNE; format: biochemical, human; settings: 3.3 nM hNE preincubated with 10 μM compound 30 min 37 °C; substrate Ac-Arg(NO)2-Glu(Bzl)-Oic-Abu-ACC
Protocol: as §1, §2

GrA [6] = experiment: Residual activity assay, GrA preinhibited with SK15I or SK15.5; format: biochemical, human; settings: substrate SK15; preincubation 30 min, 37 °C
Protocol: as §1, §2

PR3 = experiment: Residual activity assay, PR3; format: biochemical; settings: 3.4 nM PR3 preincubated with 10 μM compound 30 min 37 °C; substrate Ac-Glu(O-Bzl)-Lys(Ac)-Hyp(Bzl)-Nva-ACC
Protocol: as §1, §2

GrK = molecular target: T4, GrK (Homo sapiens, UniProt P49863); experiment: Residual activity assay, GrK; format: biochemical; settings: 488 nM GrK preincubated with 10 μM compound 30 min 37 °C; 200 μM GrKref
T4 construct: made in house; host or cells: Pichia pastoris
T4 sequence (P49863 27-264): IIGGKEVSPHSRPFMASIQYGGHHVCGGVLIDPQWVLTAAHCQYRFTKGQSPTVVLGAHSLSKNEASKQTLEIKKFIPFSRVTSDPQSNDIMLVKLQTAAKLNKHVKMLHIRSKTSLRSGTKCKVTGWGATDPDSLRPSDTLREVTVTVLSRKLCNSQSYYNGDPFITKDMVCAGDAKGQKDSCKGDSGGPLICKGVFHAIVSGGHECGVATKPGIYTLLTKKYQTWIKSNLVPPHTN
Protocol: as §1, §2

GrM = experiment: Residual activity assay, GrM; format: biochemical, human; settings: 74 nM GrM preincubated with 10 μM compound 30 min 37 °C; substrate Ac-Lys-Val-Pro-Leu-ACC
Protocol: as §1, §2

GrA in NK92 cell lysates = settings: lysates 1 × 10^7 cells/mL, probe 250 nM to 2 μM, 1 h, 37 °C
GrA [7] = molecular target: T2, GrA; experiment: Steady-state Michaelis–Menten kinetics of fluorogenic ACC substrates with GrA; format: biochemical; settings: GrA 93 nM, 37 °C, ACC fluorescence 355/460 nm
Source text: All chemical and biological reagents were purchased from commercial suppliers and used without further purification. The following reagents for solid phase peptide synthesis, Rink Amide RA resin (particle size 200–300 mesh, loading 0.74 mmol/g), 2-chlorotrityl chloride resin, Fmoc-protected amino acids, biotin, 1-[bis(dimethylamino)methylene]-1H-1,2,3-triazolo[4,5-b] pyridinium 3-oxid hexafluorophosphate (HATU), piperidine, diisopropylcarbodiimide (DICI), and trifluoroacetic acid (TFA), were purchased from Iris Biotech GmbH (Marktredwitz, Germany); anhydrous N-hydroxybenzotriazole (HOBt, purity >98%) was purchased from Creosauls; 2,4,6-collidine (2,4,6-trimethylpyridine), HPLC pure acetonitrile, and triisopropylsilane (TIPS) were purchased from Sigma-Aldrich (Poznan, Poland); and N,N-diisopropylethylamie (DIPEA) was purchased from VWR International (Gdansk, Poland). Solvents such as N,N-dimethylformamide (DMF), dichloromethane (DCM), methanol (MeOH), diethyl ether (Et2O), and acetic acid (AcOH) were purchased from Avantor (Gliwice, Poland). Cy5 was purchased from Lumiprobe GmbH (Hannover, Germany). Human neutrophil elastase was purchased from BioCentrum (Kraków, Poland) and proteinase 3 from Athens Research Technology (Athens, USA). Anti-GrA antibody (rabbit, monoclonal, ab209205) was obtained from Abcam (Cambridge, Great Britain). All cell lines were purchased from DSMZ (Braunschweig, Germany) or ATCC (Manassas, USA). All kinetic assays were performed using a Spectra Max Gemini XPS spectrofluorometer (Molecular Devices) on 96-well Corning plates. The parameters of the process were as follows: 37 °C; excitation/emission wavelength, 355/460 nm; cutoff, 455 nm; varying concentrations of substrates and enzyme. All measurements were performed in duplicate, and the data represent the average of these repetitions

T1 sequence (P10144 21-247): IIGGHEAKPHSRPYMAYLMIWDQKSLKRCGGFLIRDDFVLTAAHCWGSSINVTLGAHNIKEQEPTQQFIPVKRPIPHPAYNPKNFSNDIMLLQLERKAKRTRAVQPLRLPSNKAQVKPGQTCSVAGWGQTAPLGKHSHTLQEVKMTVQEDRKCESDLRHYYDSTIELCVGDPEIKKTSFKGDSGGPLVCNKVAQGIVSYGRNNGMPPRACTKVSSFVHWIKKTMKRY

Ac-Met(O)-Gly-Hyp(Bzl)-3-Abz-ACC [SK13]
hydrolysis by GrB (in words) (GrB [1]): significantly hydrolyzed

L-Asp
relative GrA activity on P1 library substrate Ac-Ile-Ser-Pro-P1-ACC (human GrA): 17.8%

L-Lys
relative GrA activity on P1 library substrate Ac-Ile-Ser-Pro-P1-ACC (human GrA): 21%

Cy5-Ahx-Tic-Gly-Oic-Arg^P(OPh)2 [SK15.5]
inhibition of GrB (GrB [2]): almost no inhibition effect
kobs/I (GrA [3]): 3521 ± 296 M^–1 s^–1
optimal probe concentration for GrA labeling (strong signal) (GrA [4]; 30 min, SDS-PAGE): 500 nM
detection limit, minimum probe concentration needed for GrA labeling (GrA [4]; 30 min, SDS-PAGE, estimated): approximately 50 nM
incubation time after which labeling no longer increases (maximal labeling) (GrA [4]; probe 250 nM): 30 min
minimal incubation time after which probe-bound GrA is detected (GrA [4]; probe 250 nM): 5 min
probe labeling of GrA zymogen (in words) (GrA [5]): no signal was detected in the zymogen
inhibition of hNE (hNE): almost no inhibition effect
residual GrA activity after preinhibition (in words) (GrA [6]): completely blocked
inhibition of PR3 (PR3): almost no inhibition effect
inhibition of GrK (GrK): 3%
inhibition of GrM (GrM): almost no inhibition effect
selectivity of labeling in NK92 cell lysates (in words) (GrA in NK92 cell lysates): did not observe any additional bands

L-Arg
relative GrA activity on P1 library substrate Ac-Ile-Ser-Pro-P1-ACC (human GrA): 92%

Ac-IG[Oic]R-{ACC} (SMILES CC[C@H](C)[C@H](NC(C)=O)C(=O)NCC(=O)N1[C@H](C(=O)N[C@@H](CCCNC(=N)N)C(=O)Nc2ccc3c(CC(N)=O)cc(=O)oc3c2)C[C@@H]2CCCC[C@@H]21) [SK17]
hydrolysis by GrB (in words) (GrB [1]): significantly hydrolyzed

Ac-Ile-Gly-Pro-Arg-ACC (Ac-IGPR-{ACC}; SMILES CC[C@H](C)[C@H](NC(C)=O)C(=O)NCC(=O)N1CCC[C@H]1C(=O)N[C@@H](CCCNC(=N)N)C(=O)Nc1ccc2c(CC(N)=O)cc(=O)oc2c1) [SK7, reference compound]
kcat (GrA [7]; assay buffer pH 7.5): 0.035 ± 0.00076 s⁻¹
kcat/KM (GrA [7]; assay buffer pH 7.5): 78 ± 6.60 s^–1 M^–1 and 78 ± 6.6 M^–1 s^–1
Km (GrA [7]; substrate 1000–7.81 μM, 50 mM Tris, 100 mM NaCl, 5 mM CaCl2, 0.01% Tween-20, pH 7.5, Michaelis–Menten nonlinear regression, duplicate): 450 ± 1.3 µM
